# “Also recorded” adds a separate entry of the source.
# Experiments:
# Nkx2.5-luc = Nkx2.5-luc reporter in P19CL6 clone #5-1; assay type: cell-based, mouse
# Text: Assay development. An Nkx2.5-luc transgene was constructed by replacing the two coding sequence exons of NRx2.5 locus from the ATG with the coding sequence of luc (from pGL3-basic vector, Promega) in an ˜180,000 base pair-long BAC (FIG. 11). The recombinant BAC DNA was introduced into pluripotent P19CL6 cells using Lipofectamine-2000 (Invitrogen) and neo^R clones were selected, and tested for chemically inducible luc activity with sodium butyrate (NaB). #5-1, a clonal stem cell line with low basal and at least a 4-fold higher NaB-inducible luciferase activity compared to vehicle control (DMSO), yielding a Z′ value of 0.7 in 384-well plate format (Zhang et al. 1999), was chosen for the HTS.
# HCN cells [1] = assay: in vitro neuronal differentiation of HCN cells (morphology, Tuj1 staining); assay type: cell-based, rat; conditions: for morphologic neuronal differentiation of NPCs: 25 μM AMPA or 50 μM Muscimol; for effect of inhibitor on Isx-9 neurogenic activity (Tuj1+ cells): Isx-9-treated HCN cells, KN93 2 d cultures
# neuroD-luciferase = neuroD-luciferase reporter gene assay in HCN cells; assay type: cell-based, rat; conditions: for effect of inhibitor on neuroD-luc activity of Isx/Isx-9-treated cells: inhibitor added to Isx/Isx-9-treated HCNs/NPCs, 24 h
# HCN cells [2] = assay: RT-PCR and protein blotting of gene expression in HCN cells; assay type: cell-based, rat; conditions: NPCs, 50 μM Muscimol
# pHDAC5:14-3-3-luciferase = assay: mammalian 2-hybrid luciferase assay (pHDAC5:14-3-3-luciferase); assay type: cell-based, rat; conditions: Isx-9-treated NSCs
# Procedure: FIGS. 5A-F—CaMK is the major HDAC kinase activated by Isx small-molecules in NSCs. […] The doses of KN93 and KN92 in reporter assays were 10, 5, and 1 μM. (FIG. 5D) A schematic diagram of a mammalian 2-hybrid luciferase assay system (pHDAC5:14-3-3-luciferase) which is dependent on the interaction of HDAC5 and 14-3-3. […] (FIG. 5E) Shown are representative images and quantification of the percentage of Isx-9-treated HCNs showing GFP-HDAC5 localization in nuclear (Nuc), cytoplasmic (Cyto), or both compartments (Nuc/Cyto) with and without KN93 or KN92 treatment after 24 h. […] Scale bar: 5 μm. Values in […] represent the average of 12 replicates±SD. Values in FIG. 5E represent the average of 2 replicates+SD of one representative experiment from two independent experiments.
# Reporter gene assay. All reporter gene assays were done in 96-well format, and each data point represents the average of 12 replicates. Reporter genes included neuroD-, gIuR2-, MREx3-, NR1-, and pHDAC5:14-3-3-luciferase and each well contained ˜25,000 cells in a volume of 100 μl. 5×10^6 HCN cells were transfected with 5 μg DNA by electroporation (Amaxa) and plated in growth media overnight. In the case of pHDAC5:14-3-3-luciferase, cells were transfected with 2 μg of each plasmid. Compounds were added the day following transfection and luciferase assays were performed 24 or 48 h later. […]
# HDAC5 = assay: protein blotting of phospho-HDAC5, HDAC4 and phospho-CaMKII in HCN cells; assay type: cell-based, rat; conditions: Isx/Isx-9-treated NSCs; KN93, KN92 5 μM
# [3] = test system: MEF2 reporter gene (3XMRE-luc); assay: MEF2 reporter gene (3XMRE-luc) assay in HCN cells; assay type: cell-based, rat; conditions: Isx-9-treated HCN cells; KN93, KN92 5 μM (10, 5, 1 μM), G66976 200 nM
# HCN cells [4] = assay: cell death in HCN cells (propidium iodide/Hoescht live staining); assay type: cell-based, rat; conditions: 2 μM Q-VD-Oph
# Procedure: Neural stem cell culture, in vitro differentiation, and CaMK inhibitor studies. The hippocampal neural stem/progenitor (NSC) line used in this study (HCN cells) were originally isolated from adult (8-10 wks old) female Fisher 344 rats and have been characterized previously (Gage et al., 1995; Palmer et al., 1997). HCN cells were cultured in DMEM:F12 (Omega Scientific) with N2 supplement (Invitrogen) and basic fibroblast growth factor (20 ng/ml FGF-2) (PeproTech). The mouse whole brain neural stem/progenitors (MWB) were derived from adult (8-10 wks old) C57BL/6 mice that have been characterized previously (Ray and Gage, 2006). […]
# Immunostaining, GFP-HDAC5 visualization, and fluorescence microscopy. […] Quantification of cell phenotype was done by sampling 6-8 random fields in each well and counting a total of 250-500 cells at 20× magnification. […] For quantification of live/dead cells, images were taken of cultures live-stained with propidium iodide and Hoescht 33342 at 20× magnification, and 500-1000 cells were counted by sampling 6-8 random fields in each well. For quantification of HDAC5 subcellular localization, 20× images were taken of live cultures, and 40-50 GFP+ cells were counted by sampling 3 random fields in each well. […]
smiles,measurement,setting,value
"CCCC(=O)[O-].[Na+] [NaB, sodium butyrate]",inducible luciferase activity compared to vehicle control (DMSO),Nkx2.5-luc,≥ 4 fold
"NCc1cc(O)no1 [Muscimol, 5-aminomethyl-3-hydroxy-isoxazole]",morphologic neuronal differentiation of NPCs,HCN cells [1],failed to induce morphologic neuronal differentiation
same,neuroD-luciferase activity,"neuroD-luciferase; NPCs, 15 μM Muscimol",an increase in neuroD-luciferase activity
same,GluR2/3 protein expression,HCN cells [2],increase
C[C@]12N[C@H](Cc3ccccc31)c1ccccc12 [MK801],effect of inhibitor on neuroD-luc activity of Isx/Isx-9-treated cells,neuroD-luciferase,small but significant decrease; also recorded: attenuated neuroD-luc activity
COc1ccc(S(=O)(=O)N(CCO)c2ccccc2CN(C)C/C=C/c2ccc(Cl)cc2)cc1 [KN93],effect of inhibitor on Isx-9 neurogenic activity (Tuj1+ cells),HCN cells [1],resulted in an inhibition of Isx-9 neurogenic activity
same,effect of inhibitor on neuroD-luc activity of Isx/Isx-9-treated cells,neuroD-luciferase,extremely effective in blocking Isx-mediated reporter gene expression
same,HDAC5 kinase activity (pHDAC5:14-3-3-luciferase),pHDAC5:14-3-3-luciferase,completely blocked HDAC5 kinase activity
same,effect of inhibitor on phospho-HDAC5 and phospho-CaMKII levels,HDAC5,blocked HDAC5 phosphorylation; also recorded: decreased phospho-HDAC5 and active phospho-CaMKII levels
same,effect of kinase inhibitor on Isx-9-mediated MEF2 reporter activation,[3],extremely effective in blocking Isx-mediated reporter gene expression; also recorded: blocked Isx-9-mediated MEF2 reporter activation
"Cc1onc(O)c1CC(N)C(=O)O (stereo not drawn) [AMPA, α-amino-3-hydroxy-5-methyl isoxazole-4-proprionic acid]",morphologic neuronal differentiation of NPCs,HCN cells [1],failed to induce morphologic neuronal differentiation
COc1ccc(S(=O)(=O)Nc2ccccc2CN(C)C/C=C/c2ccc(Cl)cc2)cc1 [KN92],HDAC5 kinase activity (pHDAC5:14-3-3-luciferase),pHDAC5:14-3-3-luciferase,not
same,effect of inhibitor on phospho-HDAC5 and phospho-CaMKII levels,HDAC5,had no effect
same,effect of kinase inhibitor on Isx-9-mediated MEF2 reporter activation,[3],had no effect
CC(C)[C@H](NC(=O)c1ccc2ccccc2n1)C(=O)N[C@@H](CC(=O)O)C(=O)COc1c(F)cccc1F [Q-VD-Oph],effect of inhibitor on Isx-9 neurogenic activity (Tuj1+ cells),HCN cells [1],does not further increase Tuj1+ cells
same,cell death in Isx-9-treated HCNs,HCN cells [4],blocks cell death
Cn1c2ccccc2c2c3c(c4c5ccccc5n(CCC#N)c4c21)CNC3=O [Isx G66976],effect of inhibitor on neuroD-luc activity of Isx/Isx-9-treated cells,neuroD-luciferase,did not significantly affect Isx-induced reporter gene expression
same,effect of inhibitor on phospho-HDAC5 and phospho-CaMKII levels,HDAC5,did not
same,effect of kinase inhibitor on Isx-9-mediated MEF2 reporter activation,[3],did not significantly affect Isx-induced reporter gene expression; also recorded: completely ineffective

# From US8193225B2, “Isoxazole amides, derivatives and methods of chemical induction of neurogenesis” (priority 2006, dated 2012)
